Results: patent US20230054887A1, “SWEETENING AND TASTE-MASKING COMPOSITIONS, PRODUCTS AND USES THEREOF” (HEALTHTECH BIO ACTIVES, S.L.U., priority 2017, published 2023)

Key:
Type in all cases: in vivo
[1] = Taste profile by calibrated taste panel at concentrations equisweet to 3% sucrose; conditions: 0- to 5-point scale
Protocol: The overall taste profile achieved with the sweetening composition of the present invention was evaluated and compared with the target taste profile of sucrose.
For this assay, all samples were evaluated at the same sweetness level, so each sample was used at a concentration which was equisweet to 3% sucrose. For each sample, the following parameters were evaluated: • Time to first sweetness detection • Time to maximum sweetness • Lingering (time for the sweetness to disappear) • Off-flavour: menthol, liquorice (any tastes that are different from sweetness) • Mouthfeel (density, i.e., the perceived viscosity in the mouth)
These evaluations were carried out by a calibrated taste panel, and conducted at room temperature.
Each of those parameters was evaluated on a 0- to 5-point scale. The values for sucrose were the reference, and were considered the target to emulate.

[2] = Sweetening synergy sensory test: concentration equisweet to sucrose reference solutions in water, expert panel; conditions: for Relative sweetening power: ratio sucrose concentration / equisweet concentration; for Equisweet concentration: room temperature
Protocol: A sensory test was performed to assess the sweetening synergism achieved with the composition of the invention (Examples A and B), and this effect was also compared to the effect obtained with analogous compositions containing beta-cyclodextrin (Comparative Examples A and B). Further compositions of the present invention (Examples C, D and E) were also assessed in this sensory test.
A group of expert panellists in sweet descriptors evaluated the sweetness of the different compositions as well as that of the ingredients NHDC, beta-cyclodextrin and gamma-cyclodextrin used alone.
Each evaluated sweetening agent was dissolved in water at different concentrations, at room temperature. The panel then determined, for each product, the concentration that was equisweet to the reference solutions of 1% and 3% sucrose in water. The results are summarized in Table 3 (Examples A and B are abbreviated as Ex. A and Ex. B, respectively, and the Comparative Examples A and B are abbreviated as Comp. A and Comp. B, respectively).
Since beta- and gamma-cyclodextrins are also sweet compounds, the equisweet concentrations of both cyclodextrins were also determined by the test panel to assess their possible contribution to the sweetness of the composition. […] Therefore, as the equisweet concentrations of both cyclodextrins are at least three orders of magnitude larger than those of NHDC, it was concluded that their contribution to the sweetness was negligible.
A more quantitative evaluation of the sweetness synergy provided by the compositions of the present invention was performed by comparing the real measured sweetness of the compositions comprising gamma-cyclodextrin and NHDC with the theoretical sweetness expected from the sum of the individual contribution of each component in the composition.
To this end, the relative sweetening power of each component was first calculated. For comparative purposes, the relative sweetening power of beta-cyclodextrin was also calculated. The relative sweetening power of a given compound, at a given sweetness level, indicates how many times sweeter this compound is than sucrose. It is therefore calculated as the ratio between the concentration of sucrose and the equisweet concentration of each ingredient, for each sweetness level.
From the relative sweetening power of each ingredient, it is possible to calculate the expected sweetness (sucrose equivalence) of a blend of those ingredients, according to Formula I:
Expected sweetness (sucrose equivalence) of a blend C1+C2=Concentration of compound C1×relative sweetening power of compound C1+Concentration of compound C2×relative sweetening power of compound C2
Then, the sweetness synergy of a blend of components can be calculated according to Formula II: […]
As disclosed above in Example 3, the relative sweetening power of a given compound, at a given sweetness level, indicates how many times sweeter than sucrose the compound is, and the value is calculated as the ratio between the concentration of sucrose and the equisweet concentration of the compound.

[3] = Masking bitterness of quinine, test panel, equibitter solution; conditions: 250 ppm quinine
Protocol: The bitter masking effect against quinine was assayed, following an analogous procedure to the one used in Example 10 for paracetamol.
The following substances were assayed: NHDC alone, beta-cyclodextrin alone, a composition comprising NHDC and beta-cyclodextrin in a molar ratio 1:1 (Example F) and a composition comprising NHDC and beta-cyclodextrin in a molar ratio 1:3 (Example G).
Analogously to Example 10, several aqueous solutions were prepared, each containing 250 ppm of quinine and different concentrations of the tested substance, namely, 5, 25, 50, 75 and 100 ppm. For each tested solution, a test panel determined the equibitter quinine solution, and the masking effect was calculated using a formula analogous to formula III (substituting 5000 with […]).
The masking synergies between beta-cyclodextrin and NHDC in Examples F and G were calculated following an analogous procedure to the one disclosed in Example 10. Therefore, using the molecular weight of each component, the amounts of beta-cyclodextrin and NHDC contained in each amount of the combinations of Examples F and G were calculated and, then, the antibittering contribution of each component was calculated on the basis of the data of Table 19. The expected masking effect was calculated as the sum of the contributions of each component, and, finally, the masking synergy was calculated (using Formula IV).

[4] = Masking bitterness of paracetamol, calibrated test panel, equibitter solution; conditions: 5000 ppm paracetamol
Protocol: The bitter masking effect against paracetamol was assayed. The anti-bittering effect was measured as a dose-response profile vs. a solution of paracetamol.
The following substances were assayed: NHDC alone, gamma-cyclodextrin alone and compositions comprising NHDC and gamma-cyclodextrin in a molar ratio 1:3 (Example B), 1.5:1 (Example C), 1:6 (Example D) and 1:10 (Example E).
For evaluating the masking effect of each substance, several aqueous solutions were prepared, each containing 5000 ppm of paracetamol and different concentrations of the tested substance, namely, 5, 25, 50, 75 and 100 ppm.
A calibrated test panel compared each solution with several solutions of paracetamol in water at different concentrations, and determined the equibitter paracetamol solution. The equibitter solution was calculated as the average of all the evaluations of the panel.
The masking effect was then calculated from the reference amount of paracetamol contained in each tested solution (5000 ppm) and the amount of paracetamol in the equibitter solution, using the following formula (Formula III): […]
For calculating the masking synergies between gamma-cyclodextrin and NHDC, first, for each amount of the combination (Examples A-E), using the molecular weight of each component, the amounts of gamma-cyclodextrin and NHDC contained therein were calculated. For example, 100 ppm of Example B contain 13.61 ppm of NHDC and 86.39 ppm of gamma-cyclodextrin. Then, the antibittering contribution of each component in the composition was calculated, on the basis of the data of Table 13. For example, 13.61 ppm of NHDC provide 9.44% masking effect and 86.39 ppm of gamma-cyclodextrin provide 5.46% masking effect (the antibittering effects for each specific concentration was calculated by interpolation of the data points in Table 13). Therefore, the expected masking effect is calculated as the sum of the contributions of each component. For example, the expected masking effect of 100 ppm of Example B is 14.90 (i.e., 9.44 plus 5.46).
Finally, the masking synergy is calculated using Formula IV: […]
The masking effect of Examples C (NHDC:gCD 1.5:1), D (NHDC:gCD 1:6) and E (NHDC:gCD 1:10) was also evaluated. Aqueous solutions were prepared, each one of them containing 5000 ppm of paracetamol and different concentrations of each one of the tested formulations Ex. C-E, namely, 25 and 50 ppm. Results are disclosed in Tables 15 to 17.

[5] = equisweet to 1% sucrose in water
[6] = equisweet to 3% sucrose in water

| SMILES | Lingering [1] | Mouthfeel (density) [1] | Off-flavour: menthol, licorice [1] | Time to first sweetness [1] | Time to maximum sweetness [1] | Total sweetness [1] | Relative sweetening power ([2]; 1% sucrose level) | Relative sweetening power ([2]; 3% sucrose level) | Equisweet concentration [2, 5] | Equisweet concentration [2, 6] | Masking effect (real) ([3]; tested substance 5 ppm) | Masking effect (real) ([3]; tested substance 25 ppm) | Masking effect (real) ([3]; tested substance 50 ppm) | Masking effect (real) ([3]; tested substance 75 ppm) | Masking effect (real) ([3]; tested substance 100 ppm) | Masking effect (real) ([4]; tested substance 5 ppm) | Masking effect (real) ([4]; tested substance 25 ppm) | Masking effect (real) ([4]; tested substance 50 ppm) | Masking effect (real) ([4]; tested substance 75 ppm) | Masking effect (real) ([4]; tested substance 100 ppm) |
| --- | --- | --- | --- | --- | --- | --- | --- | --- | --- | --- | --- | --- | --- | --- | --- | --- | --- | --- | --- | --- |
| OC[C@H]1O[C@@](CO)(O[C@H]2O[C@H](CO)[C@@H](O)[C@H](O)[C@H]2O)[C@@H](O)[C@@H]1O [Sucrose, sucrose] | 2.00 | 4.00 | 0.00 | 1.00 | 2.00 | 5.00 | – | – | – | – | – | – | – | – | – | – | – | – | – | – |
| OC[C@H]1O[C@@H]2O[C@H]3[C@H](O)[C@@H](O)[C@@H](O[C@H]4[C@H](O)[C@@H](O)[C@@H](O[C@H]5[C@H](O)[C@@H](O)[C@@H](O[C@H]6[C@H](O)[C@@H](O)[C@@H](O[C@H]7[C@H](O)[C@@H](O)[C@@H](O[C@H]8[C@H](O)[C@@H](O)[C@@H](O[C@H]1[C@H](O)[C@H]2O)O[C@@H]8CO)O[C@@H]7CO)O[C@@H]6CO)O[C@@H]5CO)O[C@@H]4CO)O[C@@H]3CO [bCD, Beta-Cyclodextrin] | – | – | – | – | – | – | 0.8333 | 0.4286 | 12000 ppm | 70000 ppm | 0.00% | 6.67% | 11.67% | 16.67% | 13.33% | – | – | – | – | – |
| OC[C@H]1O[C@@H]2O[C@H]3[C@H](O)[C@@H](O)[C@@H](O[C@H]4[C@H](O)[C@@H](O)[C@@H](O[C@H]5[C@H](O)[C@@H](O)[C@@H](O[C@H]6[C@H](O)[C@@H](O)[C@@H](O[C@H]7[C@H](O)[C@@H](O)[C@@H](O[C@H]8[C@H](O)[C@@H](O)[C@@H](O[C@H]9[C@H](O)[C@@H](O)[C@@H](O[C@H]1[C@H](O)[C@H]2O)O[C@@H]9CO)O[C@@H]8CO)O[C@@H]7CO)O[C@@H]6CO)O[C@@H]5CO)O[C@@H]4CO)O[C@@H]3CO [gCD, gamma-cyclodextrin] | – | – | – | – | – | – | 0.4000 | 0.3529 | 25000 ppm | 85000 ppm | – | – | – | – | – | 1.00% | 2.00% | 4.00% | 5.00% | 6.00% |
